Data on one molecule can be found in US11464810B2, “Ascaroside treatment of eosinophilic esophagitis” (California Institute of Technology, priority 2016, dated 2022).

Test [1] relates to ovalbumin model of murine asthma. Briefly: ovalbumin model of murine asthma. It is filed as in vivo, mouse. The following applies: C57BL/6 mice. As to the method:
Adult C57BL/6 mice were sensitized by administering 2 ug OVA (Sigma-Aldrich) and 1 mg alum (Thermo) with 50ng ascr#7 or saline, via intraperitoneal injection, on Day 0 and 14. On day 24, the mice were challenged with intranasal administration of saline containing 100 μg OVA, under isoflurane anesthesia. Histologic sections were stained with H&E or PAS to score for eosinophilia, goblet cell metaplasia, and airway hyper-reactivity. Mice were also placed in a computer controlled small animal ventilator (SCIREQ) to score for airway hyper-reactivity following methacholine challenge. […] Animals with asthma have higher resistance of flow, which would be represented as higher “RL” values in FIG. 3B-FIG. 3F. […] Lungs were collected, postmortem, and then sectioned and stained to show the presence of eosinophils and mucus. […] In FIG. 3G, the asthmatic mouse lung, here labeled “Asthma” has a large number of mucus and eosinophils that surround the bronchioles and occupy the alveolar space; wherein the thick barriers would prohibit oxygen from easily diffusing.

Another test concerns IL-6. Nature of the test: IL-6 secretion by bone marrow-derived dendritic cells, ELISA. It is filed as cell-based, mouse. The conditions noted are these: different concentrations of ascr#7. As to the method:
(§1) Bone marrow was extracted from femurs of C57BL/6 mice (6-12 weeks of age). These mice were euthanized by CO2 inhalation and their femurs were removed. After removing the remaining flesh from the bone, they were cut at the metaphysis. Bone marrow was flushed out using a syringe filled with RPMI. The extracted marrow was further broken down by resuspension with syringe. The mixture was centrifuged and the pellet was re-suspended in RPMI. […] 20 ng of GM-CSF was added to each well. At day 3, and every 3 days thereafter, the media was replaced. Cells were used for experiments between day 7-9.
(§2) Bone marrow dendritic cells were collected between day 7-9 of culture. Cells were washed twice and counted. Ascr#7 in water or RPMI were placed in corresponding wells, and are allowed to dry. 10^6 cells were then plated in each well in a 24 well culture plate. Cells were left to incubate with ascr#7 for 5 minutes. Following the brief incubation, different TNFα was added to the wells. These bone marrow dendritic cells were then cultured at 37° C. for 18-72 hours. Cells were collected via the pellet generated by centrifuge. The supernatant was also preserved. EBioscience ELISA kits was used to determine the concentration of different cytokines present in each well.

Test [2] deals with T cell transfer model of colitis. Nature of the test: T cell transfer model of colitis (immune dysregulation model of inflammatory bowel disease). It is filed as in vivo, mouse. The conditions noted are these: Rag −/− mice, 300 ng ascr#7 intraperitoneal every 3 days between day 14 and day 28. How it is done: A T cell transfer model of colitis where 10^6 CD4+ T cells were transferred to adult Rag −/− mice was used, and either saline or 300 ng ascr#7 were administered via intraperitoneal injection every 3 days between day 14 and day 28. On day 28, the mice were euthanized and colon analysis was performed. n=3 mice per group. […] The normal mouse colon is long, skinny, and has discrete fecal pellets. The diseased mouse colon, with IBD, has a shortened, dilated colon, with diarrhea instead of discrete fecal pellets.

A further test concerns IL-1β. Briefly: IL-1β secretion by bone marrow-derived dendritic cells, ELISA. It is filed as cell-based, mouse. The following applies: different concentrations of ascr#7. How it is done:
as §1, §2
In general terms: An ELISA detects its analyte on a solid surface through an enzyme-linked reagent.

[3] abbreviates: 50ng ascr#7 intraperitoneal on Day 0 and 14, H&E or PAS sections.

Each structure is given as a SMILES string.

Take `C[C@H](CC/C=C/C(=O)O)O[C@@H]1O[C@@H](C)[C@H](O)C[C@H]1O` [ascr#7]: in test [1] (setting [3]), the development of eosinophilia result is “reduces the development of” and the “development of goblet cell metaplasia” value is recorded as “reduces the development of”. Moreover, the “lung histology (eosinophils and mucus; boundaries between bronchioles and alveolar space)” value in test [1] (50ng ascr#7 intraperitoneal on Day 0 and 14, stained lung sections, FIG. 3G) was “thin boundaries between the bronchioles and the alveolar space, comparable to the normal mice”. Moreover, the “resistance of air flow (RL), airway hyper-reactivity following methacholine challenge” value in test [1] (50ng ascr#7 intraperitoneal on Day 0 and 14 with OVA/alum, FIG. 3B-3F) was “low resistance of air flow, with comparable levels to normal mice”. Moreover, in the test on IL-6 (dendritic cells not stimulated with TNF-α, FIG. 1 left side), the IL-6 levels result was “very low levels of IL-6”. Besides, the “secreted IL-6 levels” value in the test on IL-6 (dendritic cells stimulated with TNF-α, FIG. 1 right side) is listed as “reduces these levels significantly”. In test [2], the “development of abnormal lumen dilation” value is listed as “markedly reduces the development of”, the “development of colon shortening” value is “markedly reduces the development of” and the development of diarrhea result is recorded as “markedly reduces the development of”. In addition, in test [2] (colon analysis day 28, FIG. 4), the “colon appearance (length, dilation, fecal pellets)” value was “normal appearing colon, which is long, skinny, and contains discrete fecal pellets”. Also, the IL-1β levels entry in the test on IL-1β (dendritic cells not stimulated with TNF-α, FIG. 2 left side) is reported as “very low levels of IL-1β”. For the same molecule, the “secreted IL-1β levels” value with IL-1β (dendritic cells stimulated with TNF-α, FIG. 2 right side) is reported as “reduces these levels significantly”.
